US20050208496A1, “Methods of testing for bronchial asthma or chronic obstructive pulmonary disease” (Genox Research, Inc., priority 2002, published 2005)

Test system: mouse counterpart genes
Assay: Mouse GeneChip (MG-U74A to MG-U74C) analysis of lung and trachea of the OVA antigen-exposed bronchial hypersensitivity model, S-Sal group versus S-OVA group
Type: in vivo
[1] = S-Sal group versus S-OVA group, MG-U74 chip A, 1st
[2] = S-Sal group versus S-OVA group, MG-U74 chip A, 2nd
[3] = S-Sal group versus S-OVA group, MG-U74 chip A, 3rd
[4] = S-Sal group versus S-OVA group, MG-U74 chip B, 1st
[5] = S-Sal group versus S-OVA group, MG-U74 chip B, 2nd
[6] = S-Sal group versus S-OVA group, MG-U74 chip B, 3rd
[7] = S-Sal group vs S-OVA group, 1st, chip A, P/A call A
[8] = S-Sal group vs S-OVA group, 1st, chip A, P/A call P
[9] = S-Sal group vs S-OVA group, 1st, chip B, P/A call A
[10] = S-Sal group vs S-OVA group, 1st, chip B, P/A call P
[11] = S-Sal group vs S-OVA group, 1st, chip C, P/A call P
[12] = S-Sal group vs S-OVA group, 2nd, chip A, P/A call A
[13] = S-Sal group vs S-OVA group, 2nd, chip A, P/A call P
[14] = S-Sal group vs S-OVA group, 2nd, chip B, P/A call A
[15] = S-Sal group vs S-OVA group, 2nd, chip B, P/A call P
[16] = S-Sal group vs S-OVA group, 2nd, chip C, P/A call P
[17] = S-Sal group vs S-OVA group, 3rd, chip A, P/A call A

ovalbumin [OVA antigen, ovalbumin antigen used for sensitization and inhalation to induce bronchial hypersensitivity in mice]
Fold Change 1st, contactin 1 (mouse Probe ID 92936_at) [1]: 1.3 | Fold Change 1st, lectin, galactose binding, soluble 1 (mouse Probe ID 99669_at) [1]: 1.6 | Fold Change 1st, peptidyl arginine deiminase, type I (mouse Probe ID 95343_at) [1]: 1.3 | Fold Change 1st, peptidyl arginine deiminase, type III (mouse Probe ID 103803_at) [1]: 2.2 | Fold Change 2nd, contactin 1 (mouse Probe ID 92936_at) [2]: 1.9 | Fold Change 2nd, lectin, galactose binding, soluble 1 (mouse Probe ID 99669_at) [2]: 2 | Fold Change 2nd, peptidyl arginine deiminase, type I (mouse Probe ID 95343_at) [2]: 0.83 | Fold Change 2nd, peptidyl arginine deiminase, type III (mouse Probe ID 103803_at) [2]: 1.4 | Fold Change 3rd, contactin 1 (mouse Probe ID 92936_at) [3]: 0.44 | Fold Change 3rd, lectin, galactose binding, soluble 1 (mouse Probe ID 99669_at) [3]: 1.3 | Fold Change 3rd, peptidyl arginine deiminase, type I (mouse Probe ID 95343_at) [3]: 0.67 | Fold Change 3rd, peptidyl arginine deiminase, type III (mouse Probe ID 103803_at) [3]: 1.5 | Fold Change 1st, aquaporin 5 (mouse Probe ID 113916_at) [4]: 0.77 | Fold Change 1st, contactin 1 (mouse Probe ID 105826_at) [4]: 0.83 | Fold Change 1st, contactin 1 (mouse Probe ID 164059_f_at) [4]: 1.7 | Fold Change 2nd, aquaporin 5 (mouse Probe ID 113916_at) [5]: 0.83 | Fold Change 2nd, contactin 1 (mouse Probe ID 105826_at) [5]: 1 | Fold Change 2nd, contactin 1 (mouse Probe ID 164059_f_at) [5]: 0.91 | Fold Change 3rd, aquaporin 5 (mouse Probe ID 113916_at) [6]: 0.59 | Fold Change 3rd, contactin 1 (mouse Probe ID 105826_at) [6]: 1.1 | Fold Change 3rd, contactin 1 (mouse Probe ID 164059_f_at) [6]: 0.77 | Fold Change 1st, contactin 1 (mouse Probe ID 170177_r_at) (S-Sal group versus S-OVA group, MG-U74 chip C, 1st): 0.67 | Fold Change 2nd, contactin 1 (mouse Probe ID 170177_r_at) (S-Sal group versus S-OVA group, MG-U74 chip C, 2nd): 1.1 | Fold Change 3rd, contactin 1 (mouse Probe ID 170177_r_at) (S-Sal group versus S-OVA group, MG-U74 chip C, 3rd): 1.5 | Fold Change, AXL receptor tyrosine kinase (mouse probe 99136_at) [7]: 0.357 | Fold Change, claudin 4 (mouse probe 101410_at) [7]: 1.8 | Fold Change, histocompatibility-2 complex class I-like sequence (mouse probe 101433_at) [7]: 0.526 | Fold Change, interferon gamma inducible protein 30 (mouse probe 97444_at) [7]: 1.3 | Fold Change, interleukin 1 receptor-like 1 (mouse probe 98500_at) [7]: 1.3 | Fold Change, low density lipoprotein receptor-related protein associated protein 1 (mouse probe 161988_f_at) [7]: 1.3 | Fold Change, matrix metalloproteinase 7 (mouse probe 92917_at) [7]: 2.3 | Fold Change, met proto-oncogene (mouse probe 100309_at) [7]: 0.667 | Fold Change, phosphotidylinositol transfer protein, beta (mouse probe 102697_at) [7]: 0.303 | Fold Change, A kinase anchor protein 2 (mouse probe 101435_at) [8]: 0.833 | Fold Change, DNA segment. Chr 16. ERATO Doi 269, expressed (mouse probe 97822_at) [8]: 1 | Fold Change, DNA segment. Chr 16. ERATO Doi 269, expressed (mouse probe 97823_g_at) [8]: 1.1 | Fold Change, arachidonate 15-lipoxygenase (mouse probe 98758_at) [8]: 1.1 | Fold Change, cholesterol 25-hydroxylase (mouse probe 104509_at) [8]: 1.1 | Fold Change, claudin 5 (mouse probe 104516_at) [8]: 1.1 | Fold Change, decay accelerating factor 1 (mouse probe 103617_at) [8]: 1.2 | Fold Change, interferon-stimulated protein (20 kDa) (mouse probe 103432_at) [8]: 1 | Fold Change, low density lipoprotein receptor-related protein associated protein 1 (mouse probe 100086_at) [8]: 1.1 | Fold Change, membrane-associated protein 17 (mouse probe 96935_at) [8]: 1 | Fold Change, phosphotidylinositol transfer protein, beta (mouse probe 102696_s_at) (S-Sal group vs S-OVA group, 1st, chip A, P/A call P, counterpart of human probe 353_at): 1.3 | Fold Change, phosphotidylinositol transfer protein, beta (mouse probe 102696_s_at) (S-Sal group vs S-OVA group, 1st, chip A, P/A call P, counterpart of human probe 35017_f_at): 1.3 | Fold Change, histocompatibility 2, Q region locus 7 (mouse probe 98438_f_at) (S-Sal group vs S-OVA group, 1st, chip A, P/A call P, counterpart of human probe 37420_i_at): 1.3 | Fold Change, histocompatibility 2, Q region locus 7 (mouse probe 98438_f_at) (S-Sal group vs S-OVA group, 1st, chip A, P/A call P, counterpart of human probe 37421_f_at): 1.3 | Fold Change, A kinase (PRKA) anchor protein 10 (mouse probe 163162_at) [9]: 0.5 | Fold Change, ESTs Putative Ortholog of ISG-54K gene (mouse probe 164273_at) [9]: 1 | Fold Change, ESTs, Highly similar to AF116721 8 PRO0907 [H. sapiens] (mouse probe 114151_at) [9]: 1 | Fold Change, neurotrophic tyrosine kinase, receptor type 1 (mouse probe 110116_at) [9]: 2.5 | Fold Change, secreted end transmembrane 1 (mouse probe 115133_at) [9]: 0.435 | Fold Change, MP and activin membrane-bound inhibitor, homolog (Xanopus laevis) (mouse probe 162531_at) [10]: 1 | Fold Change, decay accelerating factor 1 (mouse probe 107626_at) [10]: 1.3 | Fold Change, viral hemorrhagic septicemia virus(VHSV) induced gene 1 (mouse probe 109385_at) [10]: 0.769 | Fold Change, cholesterol 25-hydroxylase (mouse probe 133666_at) (S-Sal group vs S-OVA group, 1st, chip C, P/A call A): 0.588 | Fold Change, deleted in bladder cancer chromosome region candidate 1 (human) Putative Ortholog (mouse probe 166806_at) [11]: 1.4 | Fold Change, interferon-induced protein with tetratricopeptide repeats 1 (mouse probe 168299_f_at) [11]: 1.3 | Fold Change, interleukin 1 receptor-like 1 (mouse probe 98501_at) (S-Sal group vs S-OVA group, 2nd, chip A): 1.8 | Fold Change, AXL receptor tyrosine kinase (mouse probe 99136_at) [12]: 0.476 | Fold Change, a disintegrin and metalloprotease domain 8 (mouse probe 103024_at) [12]: 3.4 | Fold Change, claudin 4 (mouse probe 101410_at) [12]: 3.4 | Fold Change, histocompatibility-2 complex class I-like sequence (mouse probe 101433_at) [12]: 0.625 | Fold Change, interferon gamma inducible protein 30 (mouse probe 97444_at) [12]: 1.9 | Fold Change, matrix metalloproteinase 7 (mouse probe 92917_at) [12]: 1.6 | Fold Change, met proto-oncogene (mouse probe 100309_at) [12]: 1 | Fold Change, phosphotidylinositol transfer protein, beta (mouse probe 102697_at) [12]: 0.333 | Fold Change, matrix metalloproteinase 7 (mouse probe 162318_r_at) (S-Sal group vs S-OVA group, 2nd, chip A, P/A call M): 1.7 | Fold Change, A kinase anchor protein 2 (mouse probe 101435_at) [13]: 0.833 | Fold Change, DNA segment. Chr 16. ERATO Doi 269, expressed (mouse probe 97821_at) [13]: 1 | Fold Change, DNA segment. Chr 16. ERATO Doi 269, expressed (mouse probe 97823_g_at) [13]: 1.1 | Fold Change, arachidonate 15-lipoxygenase (mouse probe 98758_at) [13]: 3.5 | Fold Change, cholesterol 25-hydroxylase (mouse probe 104509_at) [13]: 3.1 | Fold Change, claudin 5 (mouse probe 104516_at) [13]: 1.2 | Fold Change, decay accelerating factor 1 (mouse probe 103617_at) [13]: 1.5 | Fold Change, interferon-stimulated protein (20 kDa) (mouse probe 103432_at) [13]: 1.2 | Fold Change, interleukin 1 receptor-like 1 (mouse probe 98500_at) [13]: 3.4 | Fold Change, polycystic kidney disease 2 (mouse probe 100951_at) [13]: 0.667 | Fold Change, phosphotidylinositol transfer protein, beta (mouse probe 102696_s_at) (S-Sal group vs S-OVA group, 2nd, chip A, P/A call P, counterpart of human probe 353_at): 1 | Fold Change, phosphotidylinositol transfer protein, beta (mouse probe 102696_s_at) (S-Sal group vs S-OVA group, 2nd, chip A, P/A call P, counterpart of human probe 35017_f_at): 1 | Fold Change, histocompatibility 2, Q region locus 7 (mouse probe 98438_f_at) (S-Sal group vs S-OVA group, 2nd, chip A, P/A call P, counterpart of human probe 37420_i_at): 1.4 | Fold Change, histocompatibility 2, Q region locus 7 (mouse probe 98438_f_at) (S-Sal group vs S-OVA group, 2nd, chip A, P/A call P, counterpart of human probe 37421_f_at): 1.4 | Fold Change, ESTs Putative Ortholog of ISG-54K gene (mouse probe 164273_at) [14]: 1 | Fold Change, ESTs, Highly similar to AF116721 8 PRO0907 [H. sapiens] (mouse probe 114151_at) [14]: 1.2 | Fold Change, decay accelerating factor 1 (mouse probe 164905_r_at) [14]: 1 | Fold Change, neurotrophic tyrosine kinase, receptor type 1 (mouse probe 110116_at) [14]: 1.2 | Fold Change, secreted end transmembrane 1 (mouse probe 115133_at) [14]: 0.5 | Fold Change, decay accelerating factor 1 (mouse probe 107626_at) [15]: 1.6 | Fold Change, interferon gamma inducible protein 30 (mouse probe 164423_at) [15]: 4 | Fold Change, viral hemorrhagic septicemia virus(VHSV) induced gene 1 (mouse probe 109385_at) [15]: 1.7 | Fold Change, deleted in bladder cancer chromosome region candidate 1 (human) Putative Ortholog (mouse probe 166806_at) [16]: 1.5 | Fold Change, interferon-induced protein with tetratricopeptide repeats 1 (mouse probe 168299_f_at) [16]: 1.1 | Fold Change, interleukin 1 receptor-like 1 (mouse probe 98501_at) (S-Sal group vs S-OVA group, 3rd, chip A): 1 | Fold Change, AXL receptor tyrosine kinase (mouse probe 99136_at) [17]: 0.25 | Fold Change, a disintegrin and metalloprotease domain 28 (mouse probe 101723_r_at) [17]: 1.8 | Fold Change, histocompatibility-2 complex class I-like sequence (mouse probe 101433_at) [17]: 0.833
